Data: paper PMC7205193, “Crystal structure of the mitochondrial protein mitoNEET bound to a benze-sulfonide ligand” (Communications chemistry, 2019)
Values joined by “and” are separate entries in the source; they are usually repeats but may differ in a detail not shown here. Equal entries are not always repeated. “Also recorded” adds a separate entry of the source. Blank lines part the entries; values can stand above or below the molecule they belong to.

How the values were obtained:
mitoNEET [1] = biological target: T1, mitoNEET (Homo sapiens, UniProt Q9NZ45); assay: [3H]rosiglitazone displacement binding assay (SPA); conditions: 20 nM [3H]rosiglitazone, 60 min, room temperature, 50 mM Tris pH 8; ± std error
T1 sequence (Q9NZ45 32-108 limits assumed): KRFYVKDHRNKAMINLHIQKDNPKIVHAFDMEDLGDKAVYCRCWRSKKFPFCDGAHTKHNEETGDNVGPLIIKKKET
Experimental: Recombinant mitoNEET was attached to nickel scintillation proximity assay (SPA) beads, and incubated with 20 nM [^3H] rosiglitazone (PerkinElmer) for 60 min at room temperature. The binding buffer was 50 mM Tris pH 8. White clear bottom 96-well plates were used for the assay, and the counts per minute analyzed in a MicroBeta Counter (Perkin Elmer). Data were analyzed as fraction of the total binding using a one-site model with GrapPad Prism 6 statistical software.

N2A mouse neuronal cells = assay: Seahorse bioenergetics mitochondrial stress test; format: cell-based; conditions: 20 μM, three hours, vs DMSO vehicle
Experimental: Mitochondrial bioenergetics were evaluated by the use of the Seahorse 96-well plate reader. Cells were grown in specialty plates from the company, at 20,000 cells per well of N2A mouse neuronal cells. The cells were treated with compounds at 20 μM for three hours, and then a mitochondrial stress test (Seahorse Biosciences) done using compounds which affect mitochondrial function, including oligomycin, FCCP, rotenone, and antimycin A.

[2] = Dynamic light scattering aggregate formation; format: physicochemical; conditions: 20 μM in PBS pH 7.4
Experimental: This stock solution was diluted into PBS pH 7.4 to a final concentration of 20 μM, and the evaluated using a Malvern DLS Nano-ZS-90 system (Malvern Instruments).

mitoNEET [3] = biological target: T1, mitoNEET; assay: Pull-down capture assay with furosemide probe on streptavidin beads; format: binding; conditions: 0–100 μM furosemide, N2A cell lysate with recombinant mitoNEET, 100 μM probe, Western blot
Experimental: For the ELISA assay, streptavidin plates (Pierce) were incubated for 30 min with a dose-dilution of the probe, after which an equal amount of recombinant mitoNEET protein was placed into the wells. After 2 h incubation at 4 °C, the plate was washed with a wash buffer with PBS pH 7.4 containing 0.05% Tween-20. The amount of mitoNEET was determine using a mitoNEET primary antibody (ProteinTech) 1:1000, followed by secondary anti-rabbit horseradish peroxidase antibody 1:2000 for 1 h. Detection of the color was done at 450 nm after addition of 3,3′,5,5′-tetramethylbenzidine solution and stopping solutions (Pierce). For the capture assay, N2A cells were lysed and collected with radio-immunoprecipitation assay buffer. […] At the end of the experiment, a magnetic tube rack was used to attract the magnetic beads. The solutions were washed with PBST (pH 7.4, 0.05% Tween-20), boiled for 5 min, and run on a BioRad 4–20% gel for Western Blot analysis (mitoNEET primary antibody 1:1000 and secondary HPR 1:2000).

[4] = system: recombinant mitoNEET (mitoNEET-His protein); set-up: method as in PMID 27687671; conditions: read-out: IC50, binding to mitoNEET; cited from earlier work
mitoNEET [5] = biological target: T1, mitoNEET; assay: Surface plasmon resonance; conditions: SPR, PBST pH 7.4, 1% DMSO, 25 °C, one-to-one binding model; read-out: equilibrium dissociation constant Kd
Experimental: Experiments were performed using Reichert4SPR refractometer system (Reichert Technologies, Depew, NY, USA) equipped with a dextran SPR sensor chip (Reichert carboxymethyl dextran P/N 13206066). Acetate buffer was used for immobilization of the protein MN (ligand). […] Data analysis were performed with TraceDrawer software. Final Kd values were determined by fitting to a one-to-one binding model.

[6] = biological target: T2, mitoNEET [2Fe-2S] cluster (Homo sapiens, UniProt Q9NZ45); assay: Iron-sulfur cluster release assay; format: biochemical; conditions: 20 μM, pH 6.5, absorbance at 458 nm, room temperature
T2 sequence (Q9NZ45 with tags, fused parts or gaps): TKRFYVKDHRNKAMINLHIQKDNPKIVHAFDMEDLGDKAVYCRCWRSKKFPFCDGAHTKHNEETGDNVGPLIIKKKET
Experimental: This method was adapted as previously described. MitoNEET was prepared as described earlier and a stock of 4 mg/mL was used in the assay, in a 50 mM Tris buffer pH 8. […] In each well 80 μL of the appropriate buffer, with either vehicle or compound, and then mitoNEET protein was added at 20 μL. The 96-well plate was analyzed in a BioTek Synergy 4 plate reader, reading at 458 nm for a period of time, at room temperature. For the pH 8, we used 50 mM Tris pH 8, with 100 mM NaCl, and for the pH 6.5, we used the 50 mM Bis–Tris pH 6.5 with 100 mM NaCl buffer solution.

[7] = biological target: the molecule itself; assay: crystal structure; mitoNEET (20 mg/ml) with equimolar furosemide, sitting drop vapor diffusion, 60% v/v Tacsimate pH 7.0; 1.95 Å; MR-SAD with PDB 3REE as search model

IC50 (mitoNEET [1]): 81 µM and 81.4 µM
Molecule: CCCNc1cc(Cl)c(S(N)(=O)=O)cc1C(=O)O [2a]

IC50 (mitoNEET [1]): 42.6 ± 1.03 µM
Molecule: CCCCNc1cc(Cl)c(S(N)(=O)=O)cc1C(=O)O [2b]

IC50 (mitoNEET [1]): 54.3 ± 0.92 µM
Molecule: CCCCCNc1cc(Cl)c(S(N)(=O)=O)cc1C(=O)O [2c]

IC50 (mitoNEET [1]): 9.12 ± 1.04 µM
Molecule: CCCCCCNc1cc(Cl)c(S(N)(=O)=O)cc1C(=O)O [2d]

IC50 (mitoNEET [1]): 19.8 ± 0.9 µM
Molecule: CCCCCCCNc1cc(Cl)c(S(N)(=O)=O)cc1C(=O)O [2e]

IC50 (mitoNEET [1]): 6.2 µM and 6.24 µM | melting point: 184 to 185 °C
Molecule: CCCCCCCCNc1cc(Cl)c(S(N)(=O)=O)cc1C(=O)O [2f]
ATP-linked oxygen consumption (N2A mouse neuronal cells): increase | basal respiration (oxygen consumption rate) (N2A mouse neuronal cells): increase | maximal respiration (N2A mouse neuronal cells): increase

IC50 (mitoNEET [1]): 20.7 µM and 20.8 µM
Molecule: NS(=O)(=O)c1cc(C(=O)O)c(NCc2ccccc2)cc1Cl [2l]
ATP-linked oxygen consumption (N2A mouse neuronal cells): increase | basal respiration (oxygen consumption rate) (N2A mouse neuronal cells): increase | maximal respiration (N2A mouse neuronal cells): increase

IC50 (mitoNEET [1]): 8.82 ± 1 µM
Molecule: NS(=O)(=O)c1cc(C(=O)O)c(NCc2ccc(F)cc2)cc1Cl [2n]

IC50 (mitoNEET [1]): 12.4 ± 1.23 µM
Molecule: NS(=O)(=O)c1cc(C(=O)O)c(NCc2cccs2)cc1Cl [2p]

IC50 (mitoNEET [1]): 2.93 ± 1.06 µM
Molecule: CCCCC/C=C\C/C=C\C/C=C\C/C=C\CCCC(=O)O [Arachidonic acid, reference compound]

aggregate formation in solution (DLS) [2]: did not observe any aggregate formation | IC50 (mitoNEET [1]): 29.3 ± 0.97 µM | Kd (mitoNEET [5]): 53.5 µM | iron-sulfur cluster release from mitoNEET [6]: able to slow down cluster release | iron-sulfur cluster release from mitoNEET ([6]; listed as furosemide): able to reduce cluster loss
Molecule: NS(=O)(=O)c1cc(C(=O)O)c(NCc2ccco2)cc1Cl [Furosemide, furosemide]
mitoNEET captured by furosemide probe in presence of competitor (mitoNEET [3]): dose-dependently the reduction of mitoNEET captured; also recorded: able to reduce the amount of mitoNEET captured | basal respiration (oxygen consumption rate) (N2A mouse neuronal cells): increase | maximal respiration (N2A mouse neuronal cells): increase | proton leak (N2A mouse neuronal cells): trended to increase | IC50 [4]: ~40 µM

IC50 (mitoNEET [1]): 1021 ± 0.96 µM
Molecule: NS(=O)(=O)c1cc(C(=O)O)c(Cl)cc1Cl [compound 1, 2,4-dichloro-5-sulfamoylbenzoic acid, reference compound]

B1: soluble domain of human mitoNEET (domain or fragment)
chain: TKRFYVKDHRNKAMINLHIQKDNPKIVHAFDMEDLGDKAVYCRCWRSKKFPFCDGAHTKHNEETGDNVGPLIIKKKET
notes: mitoNEET (gene cisd1), human, soluble domain; Each subunit holds a [2Fe-2S] cluster (His87 and three cysteines); also called mN; MN; source: E. coli Rosetta 2 (DE3), purified (Ni-NTA, SUMO protease digestion, second Ni-NTA, size exclusion chromatography); not shown: His-SUMO, N-terminal, cleaved
binding result [7]: binds
